“Also recorded” adds a separate entry of the source.

Experiment [1] deals with UC, NSCLC, TNBC and PDAC patients. Kind of experiment: Validation of the 6-gene signature (6TBRS) in atezolizumab clinical trials (IMvigor210, POPLAR). As to conditions: patients with high expression of the 6-gene signature. The class given is in vivo, human. An excerpt: We developed a pan-tissue 6-gene F-TBRS based on the 19-gene Pan-F-TBRS data described above but further prioritizing TGF-β pathway components (TGFB1 and TGFBR2) and targets (CTGF, ADAM19, ACTA2, and COMP). To validate the predictive value of the 6-gene signature, we calculated hazard ratios for prognostic effects (using univariate continuous Cox proportional hazards regression models) and predictive effects, and calculated hazard ratios for predictive effects (using the log-rank test with median cutoff) in atezolizumab clinical trials. […] See, e.g., FIGS. 6B and 6C, which show data from IMvigor210 and the POPLAR study (NCT01903993), respectively.

Experiment [2] deals with metastatic urothelial carcinoma (mUC) patients. The experiment can be described thus: IMvigor210 single-arm phase II study of atezolizumab: response (RECIST v1.1) and overall survival. The class given is in vivo, human. How it is done: Samples for this analysis were collected from IMvigor210, which was a single-arm phase II study investigating atezolizumab (1200 mg every 3 weeks (q3w)) in metastatic urothelial carcinoma (mUC) patients (Clinical Trial Identifier: NCT02108652). The primary endpoint of the trial was to achieve a partial response (PR) rate of over 10% (Response Evaluation Criteria In Solid Tumors (RECIST) v1.1). Patients who had failed previous platinum-based chemotherapy or previously untreated patients who were not eligible for platinum-based chemotherapy were eligible. The primary endpoint was met for both previously treated and untreated populations. It was a requirement for all patients to have tumor tissue taken in the 2 years prior to study entry. The tissues were initially used for PD-L1 analysis (SP142 antibody using the Ventana platform). PD-L1 positivity was defined as more that 5% of cells staining in the immune component of the tumor tissue. Additional tissue was used for exploratory analysis. All patients had measurable disease at baseline facilitating response assessment. RECIST v1.1 was used to assess response to therapy. Cross-sectional imaging was performed every 6 weeks. All patients gave […] for this analysis.
For investigation of the clinical activity of PD-L1 blockade with atezolizumab, 429 patients with advanced mUC were enrolled in a phase 2, single arm clinical trial (IMvigor210; NCT02108652). Objective response rate was assessed per RECIST v1.1 and served as a trial endpoint. […] Assessment of the association of PD-L1 expression on tumor-infiltrating immune cells (IC) on baseline tumors with response (objective response rate) was a co-primary endpoint. PD-L1 IC status was defined by the percentage of PD-L1-positive immune cells in the tumor microenvironment (TME): IC0 (<1%), IC1 (≥1% but <5%) and IC2+(≥5%).

As for “atezolizumab: anti-PD-L1 antibody (Genentech), CAS Registry Number 1422185-06-5, also known as MPDL3280A”, the response/benefit from monotherapy result in experiment [1] is on record as “lack of benefit; also recorded: lack of response”; in experiment [1] (listed as atezolimumab), “lack of response”. The “primary endpoint: partial response (PR) rate of over 10% (RECIST v1.1)” value in experiment [2] (1200 mg q3w, previously treated and untreated mUC populations) was “met”. The response rate in experiment [2] (Lund genomically unstable (GU) subtype) came to 47.2%; in experiment [2] (other Lund subtypes), 17.6%. Moreover, the “overall survival (OS) benefit” value in experiment [2] (high PD-L1 IC scores (IC2/3) relative to IC0/1) was “Improved OS benefit”; in experiment [2] (high TMB relative to low TMB, median TMB as cutoff), “improved OS benefit”. Further, in experiment [2] (high TGF-β 2-gene signature (TGFB1, TGFBR2)), the response entry is “lack of response”. In experiment [2] (patients with both high TMB and high PD-L1 IC scores), the “overall survival (OS)” value is reported as “Improved OS”. Moreover, the “complete response (CR) rate” value in experiment [2] (tumors with high PD-L1 expression on IC (IC2+) versus other IC levels) is listed as “significantly higher complete response (CR) rate; also recorded: highest CR rate”.

The record behind these values is patent US11473151B2, “Diagnostic and therapeutic methods for cancer” (Genentech, Inc., priority 2017, dated 2022).
